Patent US5620958A, “Bradykinin antagonists” (Coretech, Inc., priority 1994, dated 1997)
Where two headings read alike, the source gives them in different places. Peptide text beside a SMILES is read from it.

Key:
NK2 receptor = target: T1, NK2 receptor (Oryctolagus cuniculus, UniProt P79218); assay: rabbit pulmonary artery, reduction of neurokinin A contraction; format: cell-based; settings: Table R; negative log of molar concentration reducing sustained neurokinin A contraction by 50%; read-out: NK2 Rabbit Pulm Art log (converted)
T1 construct: reduce a sustained contractile response produced by neurokinin A by 50%; from tissue; host or cells: contractile tissue preparation (rabbit pulmonary artery per the earlier reading)
T1 sequence (P79218 1-384): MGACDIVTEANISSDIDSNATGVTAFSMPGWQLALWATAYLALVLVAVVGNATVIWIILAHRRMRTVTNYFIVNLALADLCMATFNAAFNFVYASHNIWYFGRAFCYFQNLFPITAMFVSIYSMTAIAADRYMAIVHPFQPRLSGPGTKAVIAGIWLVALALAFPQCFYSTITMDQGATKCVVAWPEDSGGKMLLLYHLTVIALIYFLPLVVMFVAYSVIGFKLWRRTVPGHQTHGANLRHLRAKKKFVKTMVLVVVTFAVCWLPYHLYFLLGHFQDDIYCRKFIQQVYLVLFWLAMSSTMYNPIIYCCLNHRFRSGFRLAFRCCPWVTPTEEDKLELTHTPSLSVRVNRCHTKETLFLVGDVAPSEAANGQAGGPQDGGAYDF
Procedure: The heterodimers thus obtained were tested for activity as heretofore described, the results being shown in Table R. In this Table -log [M] represents the negative log of the molar concentration of the antagonist necessary to reduce a sustained contractile response produced by neurokinin A by 50%.

BK2 receptor [1] = target: T2, BK2 receptor (Rattus norvegicus, UniProt P25023); assay: cell-based
T2 sequence (P25023 1-396): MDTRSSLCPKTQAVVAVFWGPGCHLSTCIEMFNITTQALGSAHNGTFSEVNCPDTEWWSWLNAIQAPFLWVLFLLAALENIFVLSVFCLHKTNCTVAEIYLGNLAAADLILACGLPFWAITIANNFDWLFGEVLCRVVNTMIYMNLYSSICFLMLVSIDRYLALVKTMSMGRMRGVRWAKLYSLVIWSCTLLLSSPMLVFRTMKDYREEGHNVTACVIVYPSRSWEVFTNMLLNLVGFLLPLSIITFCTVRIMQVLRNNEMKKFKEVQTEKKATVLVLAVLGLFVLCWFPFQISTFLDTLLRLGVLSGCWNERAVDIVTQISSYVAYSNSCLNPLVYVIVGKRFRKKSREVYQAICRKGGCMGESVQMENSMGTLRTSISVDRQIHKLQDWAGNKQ

BK2 receptor [2] = target: T3, BK2 receptor (Cavia porcellus, UniProt O70526); assay: guinea-pig ileum (GPI) in vitro, antagonism of BK; format: cell-based; settings: Table E
T3 construct: tested for activity on guinea pig ileum in vitro on the standard tissue bath/strain gauge system; from tissue; host or cells: guinea pig ileum
T3 sequence (O70526 1-372): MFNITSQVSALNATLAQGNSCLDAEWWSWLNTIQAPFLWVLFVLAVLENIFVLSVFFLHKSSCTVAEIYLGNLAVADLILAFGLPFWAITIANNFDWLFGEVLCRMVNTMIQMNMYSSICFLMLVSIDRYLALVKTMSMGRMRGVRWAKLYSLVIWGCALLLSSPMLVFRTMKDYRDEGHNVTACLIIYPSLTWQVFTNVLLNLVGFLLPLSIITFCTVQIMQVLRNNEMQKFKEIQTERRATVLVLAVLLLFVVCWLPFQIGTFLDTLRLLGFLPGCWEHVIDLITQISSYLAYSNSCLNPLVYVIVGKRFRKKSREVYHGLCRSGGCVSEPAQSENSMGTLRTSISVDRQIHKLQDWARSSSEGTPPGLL
Outline: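 Isolated guinea-pig ileum in tissue bath with strain-gauge recording; antagonism of bradykinin contractions. Potency expressed as pA2 (Schild method: negative log molar antagonist concentration causing two-fold agonist potency shift); percentage recovery also determined.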

BK1 receptor = target: T4, BK1 receptor (Oryctolagus cuniculus, UniProt P48748); assay: rabbit aorta in vitro, reversal of des-Arg^9 -BK contraction; format: cell-based; settings: Table G; negative log of molar concentration causing 50% reversal of 10^-7 M des-Arg^9 -BK contraction
T4 construct: when administered to an intact animal; from tissue; host or cells: whole rabbit (systemic arterial blood pressure), LPS-pretreated
T4 sequence (P48748 1-352): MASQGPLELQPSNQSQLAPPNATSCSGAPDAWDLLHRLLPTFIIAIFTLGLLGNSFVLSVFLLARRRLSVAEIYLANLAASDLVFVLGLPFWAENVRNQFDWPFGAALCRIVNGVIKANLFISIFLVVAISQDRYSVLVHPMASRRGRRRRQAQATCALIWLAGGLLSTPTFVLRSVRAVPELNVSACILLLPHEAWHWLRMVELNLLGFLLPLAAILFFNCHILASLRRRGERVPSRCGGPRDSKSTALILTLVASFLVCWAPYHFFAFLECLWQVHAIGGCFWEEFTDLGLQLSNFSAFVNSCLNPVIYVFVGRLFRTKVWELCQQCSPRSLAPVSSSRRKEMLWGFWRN

BK2 receptor [3] = target: T2, BK2 receptor; settings: Table C, rat uterus; P.A. = partial antagonist

SMILES	IC50 (NK2 receptor) [µM]	Kb (BK2 receptor [1]) [µM]	GPI pA2 (BK2 receptor [2])	BK1 RABBIT AORTA IC50 (BK1 receptor)	pA2 DIMER (BK2 receptor [3])	Kb (BK2 receptor [1]; BK2 RAT UTERUS pA2, Table G) [µM]	Kb (BK2 receptor [1]; pA2 (UTERUS), Table D, effect of linker length) [µM]
CC(C)C[C@H](NC(=O)[C@@H](Cc1ccccc1)NC(=O)[C@H](CSC1CC(=O)N(CCCCCCN2C(=O)CC(SC[C@H](N)C(=O)N[C@@H](Cc3ccc(O)cc3)C(=O)N[C@H](Cc3c[nH]c4ccccc34)C(=O)N[C@H](C(=O)N[C@H](Cc3c[nH]c4ccccc34)C(=O)N[C@H](Cc3c[nH]c4ccccc34)C(=O)N[C@@H](CCCNC(=N)N)C(N)=O)C(C)C)C2=O)C1=O)NC(=O)[C@H](Cc1ccccc1)NC(=O)CNC(=O)[C@@H]1C[C@@H](O)CN1C(=O)[C@@H]1CCCN1C(=O)[C@H](CCCNC(=N)N)NC(=O)[C@H](N)CCCNC(=N)N)C(=O)N[C@@H](CCCNC(=N)N)C(=O)O (stereo partly drawn) [CP-0411] (HELM PEPTIDE1{[dR].R.P.[Hyp].G.F.C.[dF].L.R}|PEPTIDE2{C.Y.[dW].V.[dW].[dW].R.[am]}|CHEM1{[O=C1CC([*:1])C(=O)N1CCCCCCN1C(=O)CC([*:2])C1=O]}$PEPTIDE1,CHEM1,7:R3-1:R1|PEPTIDE2,CHEM1,1:R3-1:R2$$$V2.0; N-terminus assumed)	3.16	0.0316	–	–	–	–	–
CC(C)C[C@H](NC(=O)[C@@H](Cc1ccccc1)NC(=O)[C@H](CSC1CC(=O)N(CCCCCCN2C(=O)CC(SC[C@H](NC(=O)[C@@H](NC(=O)[C@@H](Cc3c[nH]c4ccccc34)NC(=O)[C@H](Cc3ccc(O)cc3)NC(=O)[C@@H](N)CC(=O)O)C(C)C)C(=O)N[C@H](Cc3c[nH]c4ccccc34)C(=O)N[C@@H](CCCNC(=N)N)C(N)=O)C2=O)C1=O)NC(=O)[C@H](Cc1ccccc1)NC(=O)CNC(=O)[C@@H]1C[C@@H](O)CN1C(=O)[C@@H]1CCCN1C(=O)[C@H](CCCNC(=N)N)NC(=O)[C@H](N)CCCNC(=N)N)C(=O)N[C@@H](CCCNC(=N)N)C(=O)O (stereo partly drawn) [CP-0415] (HELM PEPTIDE1{[dR].R.P.[Hyp].G.F.C.[dF].L.R}|PEPTIDE2{D.Y.[dW].V.C.[dW].R.[am]}|CHEM1{[O=C1CC([*:1])C(=O)N1CCCCCCN1C(=O)CC([*:2])C1=O]}$PEPTIDE1,CHEM1,7:R3-1:R1|PEPTIDE2,CHEM1,5:R3-1:R2$$$V2.0; N-terminus assumed)	6.31	0.0158	–	–	–	–	–
CC(C)C[C@H](NC(=O)[C@@H](Cc1ccccc1)NC(=O)[C@H](CSC1CC(=O)N(CCCCCCN2C(=O)CC(SC[C@H](NC(=O)[C@@H](Cc3c[nH]c4ccccc34)NC(=O)[C@H](Cc3ccc(O)cc3)NC(=O)[C@@H](N)CC(=O)O)C(=O)N[C@H](Cc3c[nH]c4ccccc34)C(=O)N[C@H](Cc3c[nH]c4ccccc34)C(=O)N[C@@H](CCCNC(=N)N)C(N)=O)C2=O)C1=O)NC(=O)[C@H](Cc1ccccc1)NC(=O)CNC(=O)[C@@H]1C[C@@H](O)CN1C(=O)[C@@H]1CCCN1C(=O)[C@H](CCCNC(=N)N)NC(=O)[C@H](N)CCCNC(=N)N)C(=O)N[C@@H](CCCNC(=N)N)C(=O)O (stereo partly drawn) [CP-0414] (HELM PEPTIDE1{[dR].R.P.[Hyp].G.F.C.[dF].L.R}|PEPTIDE2{D.Y.[dW].C.[dW].[dW].R.[am]}|CHEM1{[O=C1CC([*:1])C(=O)N1CCCCCCN1C(=O)CC([*:2])C1=O]}$PEPTIDE1,CHEM1,7:R3-1:R1|PEPTIDE2,CHEM1,4:R3-1:R2$$$V2.0; N-terminus assumed)	6.31	0.0158	–	–	–	–	–
CC(C)C[C@H](NC(=O)[C@@H](Cc1ccccc1)NC(=O)[C@H](CSC1CC(=O)N(CCCCCCN2C(=O)CC(SC[C@H](NC(=O)[C@@H](Cc3c[nH]c4ccccc34)NC(=O)[C@@H](NC(=O)[C@@H](Cc3c[nH]c4ccccc34)NC(=O)[C@H](Cc3ccc(O)cc3)NC(=O)[C@@H](N)CC(=O)O)C(C)C)C(=O)N[C@@H](CCCNC(=N)N)C(N)=O)C2=O)C1=O)NC(=O)[C@H](Cc1ccccc1)NC(=O)CNC(=O)[C@@H]1C[C@@H](O)CN1C(=O)[C@@H]1CCCN1C(=O)[C@H](CCCNC(=N)N)NC(=O)[C@H](N)CCCNC(=N)N)C(=O)N[C@@H](CCCNC(=N)N)C(=O)O (stereo partly drawn) [CP-0416] (HELM PEPTIDE1{[dR].R.P.[Hyp].G.F.C.[dF].L.R}|PEPTIDE2{D.Y.[dW].V.[dW].C.R.[am]}|CHEM1{[O=C1CC([*:1])C(=O)N1CCCCCCN1C(=O)CC([*:2])C1=O]}$PEPTIDE1,CHEM1,7:R3-1:R1|PEPTIDE2,CHEM1,6:R3-1:R2$$$V2.0; N-terminus assumed)	2.51	0.002	–	–	–	–	–
CC(C)C[C@H](NC(=O)[C@@H](Cc1ccccc1)NC(=O)[C@H](CSC1CC(=O)N(CCCCCCN2C(=O)CC(SC[C@H](NC(=O)[C@@H](Cc3c[nH]c4ccccc34)NC(=O)[C@@H](Cc3c[nH]c4ccccc34)NC(=O)[C@@H](NC(=O)[C@@H](Cc3c[nH]c4ccccc34)NC(=O)[C@H](Cc3ccc(O)cc3)NC(=O)[C@@H](N)CC(=O)O)C(C)C)C(N)=O)C2=O)C1=O)NC(=O)[C@H](Cc1ccccc1)NC(=O)CNC(=O)[C@@H]1C[C@@H](O)CN1C(=O)[C@@H]1CCCN1C(=O)[C@H](CCCNC(=N)N)NC(=O)[C@H](N)CCCNC(=N)N)C(=O)N[C@@H](CCCNC(=N)N)C(=O)O (stereo partly drawn) [CP-0417] (HELM PEPTIDE1{[dR].R.P.[Hyp].G.F.C.[dF].L.R}|PEPTIDE2{D.Y.[dW].V.[dW].[dW].C.[am]}|CHEM1{[O=C1CC([*:1])C(=O)N1CCCCCCN1C(=O)CC([*:2])C1=O]}$PEPTIDE1,CHEM1,7:R3-1:R1|PEPTIDE2,CHEM1,7:R3-1:R2$$$V2.0)	2.51	0.01	–	–	–	–	–
CC(C)C[C@H](NC(=O)[C@@H](Cc1ccccc1)NC(=O)[C@H](CSC1CC(=O)N(CCCCCCN2C(=O)CC(SC[C@H](NC(=O)[C@H](Cc3ccccc3)NC(=O)CNC(=O)[C@@H]3C[C@@H](O)CN3C(=O)[C@@H]3CCCN3C(=O)[C@H](CCCNC(=N)N)NC(=O)[C@H](N)CCCNC(=N)N)C(=O)N[C@H](Cc3ccccc3)C(=O)N[C@@H](CC(C)C)C(=O)N[C@@H](CCCNC(=N)N)C(=O)O)C2=O)C1=O)NC(=O)[C@H](Cc1ccccc1)NC(=O)CNC(=O)[C@@H]1C[C@@H](O)CN1C(=O)[C@@H]1CCCN1C(=O)[C@H](CCCNC(=N)N)NC(=O)[C@H](N)CCCNC(=N)N)C(=O)N[C@@H](CCCNC(=N)N)C(=O)O (stereo partly drawn) [CP-0127] (HELM PEPTIDE1{[dR].R.P.[Hyp].G.F.C.[dF].L.R}|PEPTIDE2{[dR].R.P.[Hyp].G.F.C.[dF].L.R}|CHEM1{[O=C1CC([*:1])C(=O)N1CCCCCCN1C(=O)CC([*:2])C1=O]}$PEPTIDE1,CHEM1,7:R3-1:R1|PEPTIDE2,CHEM1,7:R3-1:R2$$$V2.0)	–	–	7.7 ± 0.2	Inactive	8.8 ± 0.3	0.00316	0.00158
